Assay results from patent publication US4154967A, “Process for preparation of phenols” (Mitsui Petrochemical Industries, Ltd., priority 1976, dated 1979).

Assay: physchem
Conditions: ethanol-water

SMILES | pKa
FC(F)(F)c1ccc(Cl)c(S)c1 [2-chloro-5-trifluoromethylphenyl mercaptan] | 6
Sc1ccc(I)cc1 [para-iodophenyl mercaptan] | 6.9
Fc1c(F)c(F)c(S)c(F)c1F [pentafluorophenyl mercaptan] | 2.7
Sc1cc(Cl)cc(Cl)c1 [3,5-dichlorophenyl mercaptan] | 5.8
N#Cc1cccc(S)c1 [meta-cyanophenyl mercaptan] | 6.3
Sc1cccc(Br)c1 [meta-bromophenyl mercaptan] | 6.8
N#Cc1ccc(S)cc1 [para-cyanophenyl mercaptan] | 6
CS(=O)(=O)c1cccc(S)c1 [meta-methylsulfonylphenyl mercaptan] | 5.9
O=C(O)c1ccccc1S [orthocarboxyphenyl mercaptan] | 5.6
Fc1ccc(S)cc1 [para-fluorophenyl mercaptan] | 7.5
Fc1cccc(S)c1 [meta-fluorophenyl mercaptan] | 6.8
O=[N+]([O-])c1ccc(S)c([N+](=O)[O-])c1 [2,4-dinitrophenyl mercaptan] | 4
Sc1ccc(Cl)cc1 [para-chlorophenyl mercaptan] | 7
CC(=O)c1cccc(S)c1 [meta-acetyl phenyl mercaptan] | 6.9
Sc1cc(Cl)c(Cl)cc1Cl [2,4,5-trichlorophenyl mercaptan] | 4.2
CC(=O)c1ccc(S)cc1 [para-acetyl phenyl mercaptan] | 5.9
Sc1c(Cl)c(Cl)c(Cl)c(Cl)c1Cl [pentachlorophenyl mercaptan] | 3.5
FC(F)(F)c1cc(S)ccc1Cl [3-trifluoromethyl-4-chlorophenyl mercaptan] | 6.2
O=S(=O)(O)c1ccc(S)cc1 [para-mercaptobenzenesulfonic acid] | 5.7
O=C(S)c1ccccc1 [thiobenzoic acid] | 6.3
Sc1ccc(Cl)c(Cl)c1 [3,4-dichlorophenyl mercaptan] | 6.2
O=S(=O)(O)c1cccc(S)c1 [meta-mercaptobenzenesulfonic acid] | 5.9
Sc1ccc(Br)cc1 [para-bromophenyl mercaptan] | 7
Sc1cccc(I)c1 [meta-iodophenyl mercaptan] | 6.8
O=[N+]([O-])c1cccc(S)c1 [meta-nitrophenyl mercaptan] | 5.9
Sc1cccc(Cl)c1 [meta-chlorophenyl mercaptan] | 6.7
O=C(O)c1ccc(S)cc1 [para-carboxyphenyl mercaptan] | 5.9
CS(=O)(=O)c1ccc(S)cc1 [para-methylsulfonylphenyl mercaptan] | 5.6
